Two compounds from patent US7192746B2, “α-Isomaltosyltransferase, process for producing the same and use thereof” (Kabushiki Kaisha Hayashibara Seibutsu Kagaku Kenkyujo, priority 2000, dated 2007) can be followed below.

For assay [1], the system named is α-isomaltosyl-transferring enzyme from Bacillus globisporus C11. As to the kind of experiment: Formation of cyclotetrasaccharide from components A, B and C. It counts as biochemical. The conditions noted are these: Enzyme of Strain C11; for Saccharide composition, remaining Substrate: 1% (w/v) substrate, pH 6.0, 1 unit/g substrate; for Saccharide composition, remaining Substrate / Saccharide composition, Cyclotetrasaccharide / Saccharide composition, Glucose / Saccharide composition, Others: 35° C., 8 hours. As to the method:
(§1) Using a purified α-isomaltosyl-transferring enzyme, the formation of cyclotetrasaccharide from the above-identified components A, B and C was examined as follows: One percent (w/v) of an aqueous solution (pH 6.0) of the component A (3-O-α-isomaltosylpanose represented by Chemical Formula 1), the component B (4-O-α-isomaltosylpanose represented by Chemical Formula 2), or the component C (1-O-α-isomaltosyl-β-panoside represented by Chemical Formula 3) was prepared into a substrate solution. To each of the resulting solutions was added one unit/g substrate of a purified specimen of α-isomaltosyl-transferring enzyme from Bacillus globisporus C9 obtained by the method in Experiment 4, or Bacillus globisporus C11 obtained by the method in Experiment 7, followed by enzymatic reaction at 35° C. for eight hours. Thereafter, the resulting mixtures were analyzed on HPLC for saccharide composition (%).

Assay [2] concerns α-isomaltosyl-transferring enzyme from Bacillus globisporus C9. The description is as above. As to conditions: Enzyme of Strain C9; for Saccharide composition, remaining Substrate: 1% (w/v) substrate, pH 6.0, 1 unit/g substrate; for Saccharide composition, remaining Substrate / Saccharide composition, Cyclotetrasaccharide / Saccharide composition, Glucose / Saccharide composition, Others: 35° C., 8 hours. It counts as biochemical. The method, then: as §1

For the compound `OC[C@H]1O[C@H](OC[C@H]2O[C@H](O[C@@H]3[C@@H](O)[C@@H](OC[C@H]4O[C@H](O[C@H]5[C@H](O)[C@@H](O)C(O)O[C@@H]5CO)[C@H](O)[C@@H](O)[C@@H]4O)O[C@H](CO)[C@H]3O)[C@H](O)[C@@H](O)[C@@H]2O)[C@H](O)[C@@H](O)[C@@H]1O` (stereo partly drawn) [Component A, 3-O-α-isomaltosylpanose], in assay [1], the “Saccharide composition, remaining Substrate” value was 9.0%; the “Saccharide composition, Cyclotetrasaccharide” value stood at 67.4%; the “Saccharide composition, Glucose” value came to 17.4%; the “Saccharide composition, Others” value is listed as 6.2%. In addition, in assay [1] (numeral in parenthesis), the “Molar ratio of the formed glucose and cyclotetrasaccharide: cyclotetrasaccharide” value is listed as “(1.08)”; the “Molar ratio of the formed glucose and cyclotetrasaccharide: glucose” value is recorded as “(1.00)”. Further, in assay [2], the “Saccharide composition, remaining Substrate” value worked out at 9.3%; the “Saccharide composition, Cyclotetrasaccharide” value worked out at 67.6%; the “Saccharide composition, Glucose” value turned out to be 17.2%; the “Saccharide composition, Others” value was 5.9%. Also, in assay [2] (numeral in parenthesis), the “Molar ratio of the formed glucose and cyclotetrasaccharide: cyclotetrasaccharide” value is “(1.09)”; the “Molar ratio of the formed glucose and cyclotetrasaccharide: glucose” value is “(1.00)”.
With `OC[C@H]1O[C@H](OC[C@H]2O[C@H](O[C@H]3[C@H](O)[C@@H](O)[C@@H](OC[C@H]4O[C@H](O[C@H]5[C@H](O)[C@@H](O)C(O)O[C@@H]5CO)[C@H](O)[C@@H](O)[C@@H]4O)O[C@@H]3CO)[C@H](O)[C@@H](O)[C@@H]2O)[C@H](O)[C@@H](O)[C@@H]1O` (stereo partly drawn) [Component B, 4-O-α-isomaltosylpanose], in assay [1], the “Saccharide composition, remaining Substrate” value was found to be 77.0%; the “Saccharide composition, Cyclotetrasaccharide” value amounted to 5.0%; the “Saccharide composition, Glucose” value was found to be 0.6%; the “Saccharide composition, Others” value came to 17.4%. In assay [2], the “Saccharide composition, remaining Substrate” value was determined as 77.1%; the “Saccharide composition, Cyclotetrasaccharide” value was found to be 5.1%; the “Saccharide composition, Glucose” value is recorded as 0.7%; the “Saccharide composition, Others” value is recorded as 17.1%.
